Assay [1] concerns the target N neuronal alpha7 (h) (Homo sapiens, UniProt P36544). Briefly: Eurofins panel: N neuronal alpha7 (h) (antagonist radioligand).
Assay [2] addresses T1, Glutamate (Non-Selective) Rat Ion Channel Glycine (Strychnine-Insensitive) (Rattus norvegicus, UniProt P35439).
T1 construct: Eurofins assay 5043
Briefly: Glutamate (Non-Selective) Rat Ion Channel Glycine (Strychnine-Insensitive), Mass Spectrometry Binding, assay 5043. To be noted: Specific binding, reference compound.

Assay [3] deals with T2, GABAB(B1b/B2) Human GABA B GPCR (Homo sapiens, UniProt Q9UBS5).
T2 construct: Eurofins (Cerep) assay 4699
T2 sequence (Q9UBS5 1-844 isoform Q9UBS5-2): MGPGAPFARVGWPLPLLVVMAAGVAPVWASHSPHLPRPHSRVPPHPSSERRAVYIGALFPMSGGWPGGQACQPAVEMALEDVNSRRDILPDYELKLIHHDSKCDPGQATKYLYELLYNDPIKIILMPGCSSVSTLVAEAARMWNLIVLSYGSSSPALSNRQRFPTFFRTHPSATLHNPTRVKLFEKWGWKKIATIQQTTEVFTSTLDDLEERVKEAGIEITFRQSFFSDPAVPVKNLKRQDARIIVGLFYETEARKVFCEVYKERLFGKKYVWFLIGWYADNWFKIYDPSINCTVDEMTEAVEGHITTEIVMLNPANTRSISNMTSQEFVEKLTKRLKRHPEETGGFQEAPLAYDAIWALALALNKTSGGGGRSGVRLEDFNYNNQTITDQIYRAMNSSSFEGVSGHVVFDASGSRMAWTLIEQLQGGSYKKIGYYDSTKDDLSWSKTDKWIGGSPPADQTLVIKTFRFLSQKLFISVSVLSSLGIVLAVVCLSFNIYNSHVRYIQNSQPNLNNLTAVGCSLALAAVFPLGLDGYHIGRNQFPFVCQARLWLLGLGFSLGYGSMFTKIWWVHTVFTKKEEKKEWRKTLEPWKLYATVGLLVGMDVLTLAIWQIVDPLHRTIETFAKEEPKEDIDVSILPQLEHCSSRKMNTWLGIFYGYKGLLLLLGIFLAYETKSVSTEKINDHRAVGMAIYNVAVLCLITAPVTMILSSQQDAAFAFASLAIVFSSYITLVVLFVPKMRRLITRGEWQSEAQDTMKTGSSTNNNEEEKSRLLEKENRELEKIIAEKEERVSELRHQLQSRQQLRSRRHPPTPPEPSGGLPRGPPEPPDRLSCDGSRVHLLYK
T2 sequence (O75899 42-941 partner): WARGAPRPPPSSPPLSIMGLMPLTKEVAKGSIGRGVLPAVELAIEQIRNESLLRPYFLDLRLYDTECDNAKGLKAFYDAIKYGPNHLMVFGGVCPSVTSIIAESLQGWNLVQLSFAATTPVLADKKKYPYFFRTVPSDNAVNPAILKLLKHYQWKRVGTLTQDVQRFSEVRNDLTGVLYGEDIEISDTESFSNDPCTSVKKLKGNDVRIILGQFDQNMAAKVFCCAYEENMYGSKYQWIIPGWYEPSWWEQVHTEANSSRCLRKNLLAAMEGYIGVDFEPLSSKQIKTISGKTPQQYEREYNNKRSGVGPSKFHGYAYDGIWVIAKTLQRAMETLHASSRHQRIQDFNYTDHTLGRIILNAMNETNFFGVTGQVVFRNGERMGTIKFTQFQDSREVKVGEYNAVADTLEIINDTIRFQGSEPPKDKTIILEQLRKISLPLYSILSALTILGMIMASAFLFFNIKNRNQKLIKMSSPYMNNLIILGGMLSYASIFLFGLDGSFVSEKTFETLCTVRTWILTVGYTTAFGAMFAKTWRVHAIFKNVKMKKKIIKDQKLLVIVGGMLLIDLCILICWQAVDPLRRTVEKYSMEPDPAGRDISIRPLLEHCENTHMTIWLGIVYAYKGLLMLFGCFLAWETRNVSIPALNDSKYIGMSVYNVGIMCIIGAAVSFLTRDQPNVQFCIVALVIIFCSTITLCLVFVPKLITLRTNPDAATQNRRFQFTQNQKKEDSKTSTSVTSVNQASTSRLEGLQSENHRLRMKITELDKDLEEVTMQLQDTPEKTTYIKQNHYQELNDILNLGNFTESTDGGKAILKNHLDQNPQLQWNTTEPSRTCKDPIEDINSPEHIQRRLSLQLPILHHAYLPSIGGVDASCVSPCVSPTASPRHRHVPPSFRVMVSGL
Briefly: GABAB(B1b/B2) Human GABA B GPCR Mass Spectrometry Binding (Antagonist Ligand) Assay, Cerep, assay 4699. The conditions noted are these: Specific binding, reference compound.

Assay [4] addresses T3, aggregated tau (3R-tau) in PiD brain tissue homogenates (Homo sapiens, UniProt P10636).
T3 construct: or only 3R-tau aggregates (PiD middle frontal gyrus); from tissue; host or cells: post-mortem human PiD brain, middle frontal gyrus homogenate
Briefly: In vitro competition (Ki) assay versus [^3H]75, PiD brain tissue homogenate. To be noted: n = 3, mean ± SD. It counts as binding.

In assay [5] the target is aggregated tau (4R-tau) in CBD brain tissue homogenates (Homo sapiens, UniProt P10636). Briefly: In vitro competition (Ki) assay versus [^3H]75, CBD brain tissue homogenate. Details: from tissue; host or cells: post-mortem human CBD brain, middle frontal gyrus homogenate. Format: binding.
Sequence of aggregated tau (4R-tau) in CBD brain tissue homogenates (P10636 1-441 isoform P10636-8): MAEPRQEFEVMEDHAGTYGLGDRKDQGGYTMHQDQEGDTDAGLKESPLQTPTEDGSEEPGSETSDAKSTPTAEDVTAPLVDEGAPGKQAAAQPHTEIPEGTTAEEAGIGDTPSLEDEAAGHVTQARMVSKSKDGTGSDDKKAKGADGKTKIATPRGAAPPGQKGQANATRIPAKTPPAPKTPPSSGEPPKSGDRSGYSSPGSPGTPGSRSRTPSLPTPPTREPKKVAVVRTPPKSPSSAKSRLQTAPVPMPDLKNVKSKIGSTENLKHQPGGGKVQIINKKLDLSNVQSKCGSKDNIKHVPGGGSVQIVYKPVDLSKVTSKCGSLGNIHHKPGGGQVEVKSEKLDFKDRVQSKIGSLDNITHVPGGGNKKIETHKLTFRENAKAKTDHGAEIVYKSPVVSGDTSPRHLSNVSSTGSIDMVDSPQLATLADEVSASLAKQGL
The target in assay [6] is T4, aggregated tau (mixed 3R/4R-tau) in AD brain tissue homogenates (Homo sapiens, UniProt P10636). Briefly: In vitro competition (Ki) assay versus [^3H]75, AD brain tissue homogenate. Format: binding. The conditions noted are these: n = 3, mean ± SD.
Target sequence in this assay (P10636 623-695 limits assumed): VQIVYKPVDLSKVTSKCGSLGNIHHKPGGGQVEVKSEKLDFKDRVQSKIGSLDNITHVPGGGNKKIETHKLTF
The target of assay [7] is T5, aggregated tau (4R-tau) in PSP brain tissue homogenates (Homo sapiens, UniProt P10636).
T5 construct: from tissue
T5 sequence (P10636 1-441 isoform P10636-8): as the sequence (P10636 1-441 isoform P10636-8) above
Briefly: In vitro competition (Ki) assay versus [^3H]75, PSP brain tissue homogenate. Format: binding. To be noted: n = 3, mean ± SD.

Assay [8] concerns the target T6, PiB binding site on amyloid-β in AD brain tissue homogenates (Homo sapiens, UniProt P05067).
T6 construct: from tissue; host or cells: post-mortem human AD brain, middle frontal gyrus homogenate
Briefly: In vitro competition (Ki) assay versus [^3H]PiB, AD brain tissue homogenate. To be noted: radioligand [^3H]PiB.

The target in assay [9] is T4, aggregated tau (mixed 3R/4R-tau) in AD brain tissue homogenates. Briefly: In vitro competition (Ki) assay versus [^3H]7, AD brain tissue homogenate. It counts as binding. To be noted: radioligand [^3H]7 ∼1 nM.
Target sequence in this assay (P10636 623-695 limits assumed): as the sequence (P10636 623-695 limits assumed) above
For assay [10], the target named is T5, aggregated tau (4R-tau) in PSP brain tissue homogenates. Briefly: In vitro competition (Ki) assay versus [^3H]7, PSP brain tissue homogenate. It counts as binding. The conditions noted are these: radioligand [^3H]7 ∼1 nM.
For assay [11] the target is unchanged. Briefly: In vitro competition (Ki) assay versus [^3H]8, PSP brain tissue homogenate. Format: binding. To be noted: radioligand [^3H]8 ∼1 nM.
Assay [12] concerns the target T4, aggregated tau (mixed 3R/4R-tau) in AD brain tissue homogenates. Briefly: In vitro competition (Ki) assay versus [^3H]8, AD brain tissue homogenate. Format: binding. The conditions noted are these: radioligand [^3H]8 ∼1 nM.
Target sequence in this assay (P10636 623-708 limits assumed): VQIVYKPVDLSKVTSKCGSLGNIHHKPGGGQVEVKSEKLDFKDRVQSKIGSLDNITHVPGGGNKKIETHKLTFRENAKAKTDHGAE
Assay [13] concerns the target mGluR5 (h) (Homo sapiens, UniProt P41594). Briefly: Eurofins panel: mGluR5 (h) (agonist radioligand). To be noted: reference compound, mGluR5 (h).
The target in assay [14] is T7, alpha1A (h) (Homo sapiens, UniProt P35348).
T7 sequence (P35348 1-466): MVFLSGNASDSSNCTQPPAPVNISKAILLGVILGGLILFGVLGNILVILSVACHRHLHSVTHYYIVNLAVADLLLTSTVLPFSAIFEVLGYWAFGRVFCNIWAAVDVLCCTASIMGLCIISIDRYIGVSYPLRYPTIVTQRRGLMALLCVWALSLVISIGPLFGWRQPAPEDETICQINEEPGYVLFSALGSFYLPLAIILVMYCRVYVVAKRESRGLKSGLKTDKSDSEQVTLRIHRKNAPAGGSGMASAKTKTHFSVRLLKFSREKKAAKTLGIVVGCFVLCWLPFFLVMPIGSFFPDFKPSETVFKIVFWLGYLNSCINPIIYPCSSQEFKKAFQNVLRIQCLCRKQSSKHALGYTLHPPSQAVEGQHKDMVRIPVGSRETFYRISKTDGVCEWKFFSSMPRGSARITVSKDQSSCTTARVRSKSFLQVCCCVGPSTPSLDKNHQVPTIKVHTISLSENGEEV
Briefly: Eurofins panel: alpha1A (h) (antagonist radioligand). The conditions noted are these: reference compound, alpha1A (h).

The target of assay [15] is GABAA1 (h) (alpha1,beta2,gamma2) (Homo sapiens, UniProt P14867+P47870). Briefly: GABAA1 (h) (alpha1,beta2,gamma2) (agonist radioligand), Eurofins assay 3051.
In assay [16] the target is T8, OX2 (h) (Homo sapiens, UniProt O43614).
T8 sequence (O43614 1-444): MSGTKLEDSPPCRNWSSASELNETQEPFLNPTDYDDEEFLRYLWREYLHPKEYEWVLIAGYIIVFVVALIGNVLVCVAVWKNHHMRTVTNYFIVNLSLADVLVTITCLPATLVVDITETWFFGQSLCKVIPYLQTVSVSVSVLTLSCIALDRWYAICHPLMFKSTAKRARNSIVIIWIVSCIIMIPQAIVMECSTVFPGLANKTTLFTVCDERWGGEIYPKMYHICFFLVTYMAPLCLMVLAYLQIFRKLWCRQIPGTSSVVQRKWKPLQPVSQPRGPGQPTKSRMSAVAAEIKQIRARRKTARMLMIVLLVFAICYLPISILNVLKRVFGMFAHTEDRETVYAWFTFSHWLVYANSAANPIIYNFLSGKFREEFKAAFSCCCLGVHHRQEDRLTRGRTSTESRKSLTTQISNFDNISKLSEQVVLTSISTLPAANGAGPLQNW
Briefly: Eurofins panel: OX2 (h) (agonist radioligand).

[17] abbreviates: read-out: Concurrent IC50 (Specific binding), reference compound.
Setting [18] is: read-out: Concurrent Ki (Specific binding), reference compound.
Setting [19] is: PiD brain tissue homogenate, radioligand [^3H]75.
Setting [20] is: AD brain tissue homogenate, radioligand [^3H]75.
The mark [21] stands for this setting: CBD brain tissue homogenate, radioligand [^3H]75, n = 3, mean ± SD.
[22] abbreviates: PSP brain tissue homogenate, radioligand [^3H]75.
The mark [23] stands for this setting: read-out: Concurrent IC50, Specific binding.
The mark [24] stands for this setting: read-out: Concurrent Ki, Specific binding.

Values joined by “and” are separate entries in the source; they are usually repeats but may differ in a detail not shown here. Equal values may be shown once. Read-outs that look alike come from different tables or passages of the source.

What is called IC50 is the concentration at which inhibition is half-maximal. What is called Ki is a measure of affinity in units of concentration, obtained from inhibition or displacement.

Sequence of mGluR5 (h) (P41594 21-1212): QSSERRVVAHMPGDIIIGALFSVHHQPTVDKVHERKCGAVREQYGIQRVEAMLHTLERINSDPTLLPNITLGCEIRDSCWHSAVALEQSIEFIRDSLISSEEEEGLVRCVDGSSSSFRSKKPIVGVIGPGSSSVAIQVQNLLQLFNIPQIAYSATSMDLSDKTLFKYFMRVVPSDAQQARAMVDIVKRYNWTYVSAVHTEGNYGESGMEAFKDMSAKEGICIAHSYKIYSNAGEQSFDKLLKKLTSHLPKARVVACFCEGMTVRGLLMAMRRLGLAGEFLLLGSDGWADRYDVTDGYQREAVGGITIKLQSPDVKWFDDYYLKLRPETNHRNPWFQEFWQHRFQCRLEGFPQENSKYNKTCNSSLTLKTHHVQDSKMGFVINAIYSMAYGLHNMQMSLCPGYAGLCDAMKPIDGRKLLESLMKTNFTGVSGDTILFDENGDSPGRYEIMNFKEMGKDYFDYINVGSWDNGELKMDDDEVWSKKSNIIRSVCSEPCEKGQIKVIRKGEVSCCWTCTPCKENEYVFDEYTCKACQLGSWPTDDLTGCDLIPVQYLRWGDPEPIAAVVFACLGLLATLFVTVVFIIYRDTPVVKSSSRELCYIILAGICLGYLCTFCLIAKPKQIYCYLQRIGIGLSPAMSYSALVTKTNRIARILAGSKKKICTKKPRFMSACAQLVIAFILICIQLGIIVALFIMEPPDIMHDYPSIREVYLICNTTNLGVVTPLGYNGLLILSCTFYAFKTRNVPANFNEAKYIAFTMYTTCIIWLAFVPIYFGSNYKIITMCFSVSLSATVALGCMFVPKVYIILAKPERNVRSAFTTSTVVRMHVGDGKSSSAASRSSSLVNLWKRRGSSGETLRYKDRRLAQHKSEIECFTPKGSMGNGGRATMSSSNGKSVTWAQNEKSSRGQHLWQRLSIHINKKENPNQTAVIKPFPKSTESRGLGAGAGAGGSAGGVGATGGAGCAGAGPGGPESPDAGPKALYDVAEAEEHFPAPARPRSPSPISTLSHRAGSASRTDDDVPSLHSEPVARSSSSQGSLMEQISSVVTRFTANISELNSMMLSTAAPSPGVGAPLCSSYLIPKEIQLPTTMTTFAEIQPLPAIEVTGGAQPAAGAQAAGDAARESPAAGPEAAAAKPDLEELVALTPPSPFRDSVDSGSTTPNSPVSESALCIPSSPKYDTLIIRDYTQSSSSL
Sequence of N neuronal alpha7 (h) (P36544 23-502): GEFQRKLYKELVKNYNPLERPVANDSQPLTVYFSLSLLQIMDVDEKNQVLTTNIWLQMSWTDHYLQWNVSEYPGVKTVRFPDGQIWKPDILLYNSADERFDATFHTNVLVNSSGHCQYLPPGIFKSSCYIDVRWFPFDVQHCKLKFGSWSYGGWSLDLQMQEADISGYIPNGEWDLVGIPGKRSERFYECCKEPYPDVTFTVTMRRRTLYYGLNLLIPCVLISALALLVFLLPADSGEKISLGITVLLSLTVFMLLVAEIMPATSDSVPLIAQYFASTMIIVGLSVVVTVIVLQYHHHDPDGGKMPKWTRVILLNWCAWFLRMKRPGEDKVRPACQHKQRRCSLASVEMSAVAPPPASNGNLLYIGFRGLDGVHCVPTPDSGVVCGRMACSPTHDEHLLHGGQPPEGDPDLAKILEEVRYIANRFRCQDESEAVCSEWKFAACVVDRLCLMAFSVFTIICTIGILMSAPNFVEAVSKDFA
T3 sequence (P10636 1-410 isoform P10636-5): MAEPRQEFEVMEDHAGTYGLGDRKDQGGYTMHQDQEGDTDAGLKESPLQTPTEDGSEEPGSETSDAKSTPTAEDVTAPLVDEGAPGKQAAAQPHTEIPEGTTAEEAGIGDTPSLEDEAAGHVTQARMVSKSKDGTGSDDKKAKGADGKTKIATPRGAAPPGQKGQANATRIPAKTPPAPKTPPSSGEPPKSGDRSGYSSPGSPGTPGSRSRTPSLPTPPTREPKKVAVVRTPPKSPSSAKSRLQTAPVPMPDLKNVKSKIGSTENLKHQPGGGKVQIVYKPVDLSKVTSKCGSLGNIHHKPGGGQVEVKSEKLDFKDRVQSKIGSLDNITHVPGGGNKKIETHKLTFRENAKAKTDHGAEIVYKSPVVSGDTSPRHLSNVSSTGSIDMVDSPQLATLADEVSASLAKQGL
T6 sequence (P05067 672-713 limits assumed): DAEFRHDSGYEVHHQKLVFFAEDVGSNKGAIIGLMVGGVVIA

Take `Clc1ccc(C2CC3CCC2N3)cn1` (racemic) [(±)epibatidine]: in assay [1] (setting [17]), the IC50 is 145 nM. Moreover, the Ki in [1] (setting [18]) worked out at 127 nM. Also, the “nH, Specific binding” value in assay [1] (reference compound) was found to be 1.959.

`O=C(O)c1cc(=O)c2c(Cl)cc(Cl)cc2[nH]1` [5,7 dichlorokynurenic acid] came in with a nH in [2] of 0.8927. For the same compound, the IC50 in assay [2] (read-out: Concurrent IC50) amounted to 44.5 nM. The Ki in assay [2] (read-out: Concurrent Ki) came to 20.4 nM.

`CCOC(OCC)P(=O)(O)CCCNCc1ccc(Cl)c(Cl)c1` [CGP 52432] gave a nH in [3] of 0.6729. Also, the IC50 in assay [3] (read-out: Concurrent IC50) worked out at 40.7 nM. Further, the Ki in [3] (read-out: Concurrent Ki) came out at 33.9 nM.

Take `Fc1ccc(-c2ccc3c(c2)[nH]c2ccncc23)cn1` [Compound 1, flortaucipir]: the Ki in [4] (PiD tissue, +10 μM Ro-41-1040 (MAO-A inhibitor) and 10 μM deprenyl (MAO-B inhibitor)) turned out to be 1490 ± 26 nM; in [5], 2130 ± 58 nM; in assay [6] (AD tissue, +10 μM Ro-41-1040 (MAO-A inhibitor) and 10 μM deprenyl (MAO-B inhibitor)), 1480 ± 53 nM; in assay [7] (PSP tissue, +10 μM Ro-41-1040 (MAO-A inhibitor) and 10 μM deprenyl (MAO-B inhibitor)), 1860 ± 39 nM.

Regarding `Fc1cc(-c2ccc3c(n2)[nH]c2ccncc23)ccn1` [Compound 2], the Ki in assay [4] (setting [19]) amounted to 1970 ± 96 nM; in assay [6] (setting [20]) it was 3020 ± 283 nM.

On to `CNc1ccc(/C=C/C=C/c2nc3ccc(OCC(O)CF)cc3s2)cn1` (stereo not shown) [Compound 3, florzolotau], for which the Ki in assay [4] (setting [19]) is 124 ± 3 nM; in assay [5] (setting [21]) it was 106 ± 6 nM; in assay [6] (setting [20]) it was ~86 nM and 86 nM; in assay [7] (setting [22]) it was 123 ± 7 nM.

Regarding `Nc1c(F)ccc2cnc(-n3ccc4ccncc43)cc12` [Compound 4, florquinitau], the Ki was 656 ± 36 nM in assay [4] (setting [19]), 888 ± 32 nM in [5] (setting [21]), 240 ± 6 nM in assay [6] (setting [20]) and 780 ± 32 nM in [7] (setting [22]).

As for `OCC1CCN(c2ccc(-c3cc4cc(O)ccc4[nH]3)c(F)n2)CC1` [Compound 5], the Ki in assay [4] (setting [19]) came out at 575 ± 36 nM; in [5] (setting [21]), 572 ± 32 nM; in assay [6] (setting [20]), 1210 ± 47 nM; in assay [7] (setting [22]), 566 ± 42 nM.

For the compound `Fc1ccc2cc(-c3cnc(N4CCCCC4)nc3)[nH]c2c1` [Compound 21, 6-Fluoro-2-(2-(piperidin-1-yl)pyrimidin-5-yl)-1H-indole], the affinity in assay [8] corresponds to a Ki of 49 nM.

Consider `Fc1ccc2cc(-c3cnc(N4CCC(F)(F)CC4)nc3)[nH]c2c1` [Compound 23, 2-(2-(4,4-Difluoropiperidin-1-yl)pyrimidin-5-yl)-6-fluoro-1H-indole], for which the Ki in assay [9] turned out to be 37 nM; in [10], 23 nM.

`N#Cc1ccc2cc(-c3cnc(N4CC(O)C(F)C4)nc3)[nH]c2c1` (stereo not shown) [Compound 24, 2-(2-(3-Fluoro-4-hydroxypyrrolidin-1-yl)pyrimidin-5-yl)-1H-indole-6-carbonitrile]: the Ki in assay [11] came to 76 nM; in assay [9] it was 120 nM; in assay [10] it was 129 nM; in [12], 74 nM.

As to `OC1CN(c2ncc(-c3cc4ccccc4[nH]3)cn2)CC1F` (stereo not shown) [Compound 28, 1-(5-(1H-Indol-2-yl)pyrimidin-2-yl)-4-fluoropyrrolidin-3-ol], the Ki came to 31 nM in [11], 39 nM in [9], 32 nM in assay [10] and 34 nM in assay [12].

The compound `Fc1ccc2cc(-c3ccc(N4CCCCC4)nc3)[nH]c2c1` [Compound 45, 6-Fluoro-2-(6-(piperidin-1-yl)pyridin-3-yl)-1H-indole] returned a Ki in [8] of 70 nM.

On to `Fc1ccc2cc(-c3ccc(N4CCOCC4)nc3)[nH]c2c1` [Compound 46, 4-(5-(6-Fluoro-1H-indol-2-yl)pyridin-2-yl)morpholine], for which the affinity in assay [8], expressed as Ki, was 53 nM.

As to `OC1CCN(c2ncc(-c3cc4cc(F)ccc4o3)cn2)CC1` [Compound 49, 1-(5-(5-Fluorobenzofuran-2-yl)pyrimidin-2-yl)piperidin-4-ol], the Ki in assay [9] is 45 nM; in [10], 91 nM.

For the compound `OC1CCN(c2ncc(-c3cc4ccccc4[nH]3)cn2)CC1` [Compound 52, 1-(5-(1H-Indol-2-yl)pyrimidin-2-yl)piperidin-4-ol], the Ki in assay [9] is 11 nM; in assay [10] it was 24 nM.

Regarding `OC1CCN(c2ncc(-c3cc4cc(F)ccc4[nH]3)cn2)CC1` [Compound 53, 1-(5-(5-Fluoro-1H-indol-2-yl)pyrimidin-2-yl)piperidin-4-ol], the Ki in assay [9] was determined as 21 nM; in assay [10], 20 nM.

On to `Fc1ccc2cc(-c3cnc(N4CCOCC4)cc3F)[nH]c2c1` [Compound 88, 4-(4-Fluoro-5-(6-fluoro-1H-indol-2-yl)pyridin-2-yl)morpholine], for which the Ki in [11] came out at 12 nM; in assay [12], 11 nM.

For the compound `Fc1ccc2cc(-c3ncc(N4CCOCC4)cc3F)[nH]c2c1` [Compound 104, 4-(5-Fluoro-6-(6-fluoro-1H-indol-2-yl)pyridin-3-yl)morpholine], the values for the Ki in assay [11] and in assay [12] were 20 nM and 17 nM, respectively.

As to `Cn1c(-c2cnc(N3CCOCC3)nc2)cc2ccc(F)cc21` [Compound 109, 4-(5-(6-Fluoro-1-methyl-1H-indol-2-yl)pyrimidin-2-yl)morpholine], the Ki in assay [9] was found to be 22 nM; in [10] it was 32 nM.

For the compound `N[C@@H](Cn1oc(=O)[nH]c1=O)C(=O)O` [L-Quisqualate], the IC50 in assay [13] (setting [23]) is 42.6 nM. In addition, the Ki in [13] (setting [24]) was 11.1 nM. For the same compound, the “nH, Specific binding” value in [13] came to 1.174.

With `COc1cccc(OC)c1OCCNCC1COc2ccccc2O1` (stereo not shown) [WB 4101], the IC50 in assay [14] (setting [23]) came out at 0.378 nM. In addition, the Ki in assay [14] (setting [24]) is 0.189 nM. For the same compound, the “nH, Specific binding” value in assay [14] is 1.2607.

With `NCc1cc(=O)[nH]o1` [muscimol], in assay [15], the IC50 was found to be 59.1 nM and the affinity corresponds to a Ki of 39.4 nM. This compound registered a nH in assay [15] (Specific binding, reference compound) of 0.6998.

As for orexin-B, the IC50 in assay [16] (setting [17]) turned out to be 0.198 nM. The Ki in assay [16] (setting [18]) stood at 0.182 nM. Besides, in [16] (reference compound), the “nH, Specific binding” value stood at 0.7675.

The values are drawn from PMC11956013, “Structure–Activity Relationships and Evaluation of 2-(Heteroaryl-cycloalkyl)-1H-indoles as Tauopathy Positron Emission Tomography Radiotracers” (Journal of Medicinal Chemistry, 2025).
